Source: patent US20170015979A1 (Instituto Tecnológico y de Estudios Superiores de Monterrey, priority 2015, published 2017)
Several values for one entry are separate records, joined by “and”; a condition that tells them apart may be missing. Equal values may be shown once. Read-outs that look alike come from different tables or passages of the source.

Tests used:
Kluyvermyces lactis = experiment: Yeast sensitivity on YPGE agar; assay type: cell-based
Description: (§1) Example 4. […] From a single overnight grown colony of each yeast strain, 25 mL of yeast extract-peptone-dextrose (YPD) broth were inoculated and grown for 16 hours at 30° C. and 150 rpm.

Kluyveromyces marxianus = experiment: Yeast sensitivity on YPGE agar; assay type: cell-based
Description: as §1

[1] = system: Saccharomyces cerevisiae ATCC 44774; experiment: Yeast sensitivity on YPGE agar; assay type: cell-based
Description: as §1

Pichia pastoris = experiment: Yeast sensitivity on YPGE agar; assay type: cell-based; conditions: 10^6 cells plated
Description: as §1

[2] = system: N. benthamiana leaf explants; experiment: Killing curve for tobacco leaf explants; assay type: cell-based; conditions: for explants exhibiting necrosis: 200 μg/mL, after 7 days, MS solid medium; for shoot induction observed (share of plates): after 30 days
Excerpt: FIG. 6. Doxycycline killing curve for N. benthamiana leaf explants.

[3] = system: Jalapeño hypocotyl, epicotyl and shoot tip tissues; experiment: Sensitivity of Jalapeño explants; assay type: cell-based; conditions: 200 μg/mL; initially evaluated after 15 days
[4] = system: C. reinhardtii strain CC-849
Description: Glass bead transformation C. reinhardtii strain CC-849 was transformed with supercoiled plasmid DNA of Atetx, Btetx, pKS-aphVIII or pSP124S (Table 4) by the glass bead method. Briefly, the algae were grown at 25° C. with a 18/6 (light/dark) photoperiod in TAP media to mid-log phase (1-2×10^6 cells/mL), the cells were harvested by centrifugation 5 min. at 5000 g, the growth medium was removed and fresh TAP was added to achieve a cell concentration of 2×10^8 cells/mL. 300 μL of the cell suspension were placed in a 1.5 mL centrifuge tube containing 0.3 g of sterile 0.4-0.6 mm diameter glass beads (Sigma, St. Louis, Mo.) and 1×10^−12 mols of the desired plasmid DNA. The cell/DNA/glass bead suspensions were vortexed 15 s at maximum power in a VWR mini vortex. The cells were transferred to a glass tube with 5 mL of fresh TAP media and incubated at 25° C. overnight with a 8/6 (light/dark) photoperiod. After 14 hours the cells were concentrated by centrifugation at 5,000 g for 15 minutes and resuspended in TAP media to yield either 3×10^7 cells/mL of pKS-aphVIII and pSP124S transformants and 2.5×10^6, 5×10^6, 1×10^7 or 3×10^7 cells/mL for tetx transformants. […] When colonies appeared, they were streaked on to selective TAP agar plates.
C. reinhardtii strain CC-849 was transformed with supercoiled plasmid DNA of AtetX and BtetX, by the glass bead method. […]

[5] = 10^5 cells plated, 2 days of incubation

Structure (SMILES) | concentration at which growth was inhibited (Kluyvermyces lactis; 10^6 cells plated) | concentration at which growth was inhibited (Kluyvermyces lactis; 10^7 cells plated) [µg/mL] | concentration at which growth was inhibited (Kluyveromyces marxianus; 10^6 cells plated) | concentration at which growth was inhibited (Kluyveromyces marxianus; 10^7 cells plated) [µg/mL] | concentration at which growth was inhibited ([1]; 10^5 cells plated) [µg/mL] | concentration at which growth was inhibited ([1]; 10^7 cells plated) [µg/mL] | concentration at which growth was inhibited (Pichia pastoris) [µg/mL] | explants exhibiting necrosis [2] [%] | explants exhibiting necrosis [3] [%] | concentration at which growth was inhibited (Kluyvermyces lactis; [5]) | concentration at which growth was inhibited (Kluyveromyces marxianus; [5]) [µg/mL] | concentration at which growth was inhibited ([1]; 2 days of incubation, cell number not clearly stated) | shoot induction observed (share of plates) ([2]; 15 μg/mL) [%] | shoot induction observed (share of plates) ([2]; 25 μg/mL) [%] | decrease of number of positive colonies compared to 15 μg/mL ([4]; tetracycline 25 μg/mL for selection of primary transformants) | decrease of number of positive colonies compared to 15 μg/mL ([4]; tetracycline 50 μg/mL for selection of primary transformants)
C[C@H]1c2cccc(O)c2C(=O)C2=C(O)[C@]3(O)C(=O)C(C(N)=O)=C(O)[C@@H](N(C)C)[C@@H]3[C@@H](O)[C@@H]21 [doxycycline] | 675 µg/mL and 1000 µg/mL | 1000 | 675 µg/mL and 1000 µg/mL | 1000 | 1000 | 1000 | 1000 | 100 | 100 | – | – | – | – | – | – | –
CN(C)[C@@H]1C(O)=C(C(N)=O)C(=O)[C@@]2(O)C(O)=C3C(=O)c4c(O)cccc4[C@@](C)(O)[C@H]3C[C@@H]12 [tetracycline, Tetracycline] | – | – | 1000 µg/mL | – | – | – | – | 100 | 100 | 750 µg/mL and 1000 µg/mL | 350 to 1000 | 500 µg/mL and 750 µg/mL and 1000 µg/mL | 50 | 50 | approximately 75% | approximately 75%
